# Assay results published in a melting point compilation (Tetko et al.; mined from patent text by program, amines drawn as free bases though some values may be those of a salt).
row,SMILES,melting point [°C]
1,Cc1noc(C)c1S(=O)(=O)Nc1ccc(Cl)cc1[N+](=O)[O-],130 to 131
2,CN(C)c1cccc(Oc2cccc(-c3cccc(C(=O)NCCC#N)c3)n2)c1,95 to 96
3,CCCCCCCCCCCCOc1ccc(C2=C(O)CSC2=O)cc1,173 to 175
4,CCCOc1ccccc1-c1nc2cc3c(cc2c(=O)[nH]1)NCN3CC,147 to 149
5,O=C(Cl)c1c(Cl)c(Cl)c(C(F)(F)F)c(Cl)c1Cl,72 to 76
6,CN(C)S(=O)(=O)n1c(N)nc2ccc(C(N)=O)cc21,206 to 208
7,N#Cc1ccc(CC23CCCN2C(=O)N(c2cc(Cl)cc(-n4cccc4C=O)c2)C3=O)cc1 (configuration not stated),110
8,O=c1n(CCO)c2ccccc2n1-c1ccc(F)cc1,124 to 126
9,CSc1ccc(COC(=O)OCc2ccc([N+](=O)[O-])cc2)cc1,84 to 86
10,Cn1ncc2cc(/C=C/c3ccc(O)cc3)ccc2c1=O,223 to 225
11,Cc1c(Cl)c(Oc2ncc(C(F)(F)F)cc2Cl)nn1C(=O)NCCCl,112 to 114
12,CN1CCC(OC(=O)Cc2cnn(-c3ccccc3)c2-c2ccc(Cl)cc2)CC1,90 to 93
13,Cc1ccc(S(=O)(=O)Nc2ccc(Oc3ccc4nc(COc5ccc(CC6SC(=O)NC6=O)cc5)n(C)c4c3)cc2)cc1 (configuration not stated),132 to 136
14,COc1cc(N)c2nccc(C)c2c1Oc1ccc(F)cc1,143 to 144
15,O=C(Oc1ccccc1O)c1cc(Br)c(Cl)s1,145 to 147
16,CCN1CCN(C(=O)c2ccc(N)cc2Cl)CC1,123 to 124
17,Cc1ccc(Cl)c(Nc2ccccc2-c2noc(=O)[nH]2)c1Cl,209 to 210
18,C=C(CC)C(=O)c1cc2c(c(Cl)c1Cl)OC(C(=O)O)C2 (configuration not stated),148
19,CC(C)OC1CCC(=O)N1S(=O)(=O)C=Cc1ccc([N+](=O)[O-])cc1 (configuration not stated),178 to 179
20,O=C(NC1CCN(CCC2CCCCC2)CC1)c1ccccc1,174 to 175
21,CC(=O)OCC1OC(Oc2cc(C)cc(O)c2C(C)=O)C(OC(C)=O)C(OC(C)=O)C1OC(C)=O (configuration not stated),140 to 142
22,COc1c(C)c(C)c(OC)c(CC/C(C)=C/CO)c1C,46
23,Cc1nnc2n1-c1ccc(Cl)cc1C(N1CC=CCC1)=NC2,192 to 194
24,Cc1ccc(NC(=O)NCC(=O)N(CC(=O)OC(C)(C)C)c2ccccc2C(=O)c2ccccc2)cc1,182 to 183
25,CC(C)C(OCc1ccc(Cl)cc1)c1cncnc1 (configuration not stated),33 to 35
26,Cc1cc(C)n2nc(S(=O)(=O)Nc3c(F)cccc3F)c(Cl)c2n1,194 to 196

row,SMILES,melting point [°C]
1,CCC1(CC)c2cc(CBr)c(CBr)cc2C(CC)(CC)N1Cc1ccccc1,164 to 166
2,"CC(=O)NCC1CC(c2ccc(-n3ccc(C=O)c3)c(F)c2)=NO1 (single isomer, unassigned; (-))",155 to 156
3,Oc1ccc(Nc2nc(NCc3ccco3)nc(Nc3cccc(Oc4ccccc4)c3)n2)cc1,80 to 83
4,CCOC(=O)CCCCCCOc1cc2c(c(Cl)c1Cl)C(=O)C(C)(C1CCCC1)C2 (configuration not stated),47 to 50
5,Cc1c(Cl)cccc1S(=O)(=O)Nc1ccc2nc(C)n(CCO)c2c1,213 to 214
6,S=C(SCc1ccccc1)N1CC2CCC(CC2)C1,98 to 99
7,COc1ccc(C2CCN(C(=O)C(=O)NO)CC2)cc1OC1CCCC1,124
8,O=C1CCC(c2ccccc2)(c2ccccc2)C2CN(C(Cc3ccccc3)=NCc3ccccc3)CC12 (configuration not stated),165
9,CCCCN1CCN(c2cccc3c2C[C@H](NC(C)=O)CC3)CC1,118 to 120
10,O=S(=O)(N[C@H]1CC[C@H](CCN2CCN(c3nccc4c3CCO4)CC2)CC1)c1ccccc1,168
11,CCCC(C(=O)N(CC)CC)n1cc(C)c(-c2ccccc2)n1 (configuration not stated),65 to 67
12,NC(=O)N(O)Cc1sccc1Sc1ccc(Br)cc1,124 to 126
13,O=C(O)c1ccc2c(c1)Cc1ccccc1O2,298 to 299
14,O=S(=O)(CCCCl)Nc1ccc(N2CCN(c3ccc(OCC(O)(Cn4cncn4)c4ccc(Cl)cc4Cl)cc3)CC2)cc1 (configuration not stated),80 to 81
15,COc1cc2ccc3c4cc(OC)c(OC)cc4ncc3c2cc1OC,122 to 124
16,CNc1nc(Cl)nc2c(Cl)ncnc12,196 to 197
17,CC1(C)CNC(=S)NC1,225 to 228
18,CCCCc1nn(-c2cc(NC(=O)CC)ccc2Cl)c(=O)n1Cc1ccc(-c2ccccc2S(=O)(=O)NC(=O)OC(C)(C)C)cc1F,137 to 140
19,COP(=O)(CC(=O)[C@@H]1COC(C)(C)N1C(=O)OC(C)(C)C)OC,86 to 87
20,O=C(CCCCCCOc1ccc(O)cc1)C(F)(F)F,61 to 62
21,COc1cc([N+](=O)[O-])ccc1S(=O)(=O)N1C(=O)C(N)(c2ccccc2Cl)c2cc(Cl)ccc21 (configuration not stated),229
22,CCNc1cccc(-c2ccnc3c(C(=O)c4ccccc4)cnn23)c1,98 to 99
23,COc1ccc2c(n1)C1(CO2)C(=O)N(Cc2cnc(C(C)C)s2)c2cccc(Br)c21 (configuration not stated),158 to 160
24,NC(=O)NNC(c1ccccc1)c1ccccc1,182 to 184
25,COc1cc(OCc2ccccn2)ccc1/C=C/c1cc(/C=C/c2cccc3ncccc23)[nH]n1,107 to 120
26,CCn1cc(C(=O)O)c(=O)c2c1CCCC2=O,212 to 214

row,SMILES,melting point [°C]
1,CN1C(=O)Cc2ccc(F)cc21,100 to 101
2,CC(C)(C)c1ccc(S(=O)(=O)N2c3ccc(F)cc3CC2C(=O)NCCc2ccccc2)cc1 (configuration not stated),168 to 172
3,COc1ccc(-c2ccc3ccc(N)nc3n2)cc1,220
4,Cc1cnc(CNC(=O)c2sc(N3CCN(CC4CC4)C3=O)nc2C)cn1,161 to 163
5,C=C(CN(C)C)c1ccc(NC(=O)NC)cc1,123 to 124
6,CC1(C)CCC(C)(C)c2cc(C(N)C(=O)NCS(=O)(=O)c3ccccc3)ccc21 (configuration not stated),175 to 176
7,CN1Cc2c(n(-c3ccc(F)cc3)c3ccc(F)cc23)C1,160 to 165
8,N#Cc1c(Cl)cc(Cl)cc1[N+](=O)[O-],102 to 103
9,CC1(C)C(=O)Nc2ccccc2C1(O)c1ccccc1 (configuration not stated),185 to 187
10,Cc1cc(=O)oc2nn(Cc3ccncc3)c(C)c12,177 to 180
11,O=C1C(CCO)Oc2ccc(Cl)cc2N1Cc1cccc(Cl)c1 (configuration not stated),90 to 92
12,CC(C)(O)C(=O)Nc1c(C(=O)c2ccccc2)[nH]c2cc(Cl)ccc12,234 to 238
13,O=c1ccn(C2CCCO2)c(=O)[nH]1 (configuration not stated),99 to 101
14,O=C(NCCNCC1COc2ccccc2O1)C12CC3CC(CC(C3)C1)C2 (configuration not stated),147 to 149
15,CC1CC(=NNc2ccccc2)c2ncc(C(=O)O)c(=O)n2C1 (configuration not stated),255 to 256
16,Fc1ccc(-c2n[nH]c(-c3ccncc3)c2-c2ccncc2)cc1,304
17,O=c1c2ccccc2c(Cc2ccc(F)cc2)nn1N1CCNCC1,157 to 159
18,O=C1CC2(CCCC2)CC(=O)N1CCCCN1CCN(C(c2ccc(F)cc2)c2ccc(F)cc2)CC1,165 to 169
19,COC(=O)c1oc(C(C)(C)C)cc1NC(=O)Nc1cccc(Cl)c1Cl,195 to 197
20,Oc1ccc(SCc2cc(O)c(O)c(O)c2)cc1,158
21,Nc1ccc(NCCNS(=O)(=O)c2ccccc2)cc1,144
22,O=C1CCCc2ccc(=O)[nH]c21,253
23,O=C1C(=O)N(c2cccc(C(F)(F)F)c2)C(=O)N1c1ccccc1,116
24,C1CNCCNCCOCCNCCN1,80 to 81
25,COc1cc(C(=O)O)cc(C(F)(F)F)c1,131 to 135
26,CC(=O)Oc1ccc2c(c1Cl)Sc1ccccc1N2,173

row,SMILES,melting point [°C]
1,Cc1ccsc1C(=COCCN1CCC[C@@H](C(=O)O)C1)c1sccc1C,55 to 70
2,CCCCCCCCCCCCCCOC(=O)n1cc(-c2ccccc2)nc1O,166 to 171
3,Oc1ccc(-n2nc3ccccc3n2)cc1,216 to 218
4,CN(C)C=Nc1cccc2nc(N3CCN(C)CC3)c(N3CCN(C)CC3)nc12,183 to 186
5,NC1=NN(c2ccc(Cl)c(Cl)c2)CC1,182 to 184
6,CCOC(=O)c1scc2c1ccc1cn[nH]c12,124 to 125
7,CC(C(N)=O)c1ccc2c(c1)oc1ccc(Cl)cc12 (configuration not stated),210 to 211
8,CCn1cc(C(=O)O)c(=O)c2cc(F)c(Cl)nc21,265 to 267
9,CC12CCC3C(CCC4C(=O)CCCC43C)C1CCC2OC1CCCCO1 (configuration not stated),123 to 126
10,CCCc1cccc(C2(c3ccc(OC(F)(F)F)cc3)N=C(N)N3CCCN=C32)c1 (configuration not stated),75 to 79
11,CC(=O)Nc1ccc(C2=NNC(=O)C3CC23)cc1 (configuration not stated),269 to 270
12,COc1c(C(=O)O)nc(-c2ccc(Cl)c(OC)c2F)c(F)c1N,143 to 146
13,O=C(O)CCCNc1nc2ccccc2c(=O)o1,147 to 148
14,O=c1nc(-c2ccc([N+](=O)[O-])cc2)oc2ccccc12,249 to 251
15,S=C(Cc1ccccc1)n1c(-c2cscn2)nc2ccccc21,122 to 123
16,O=C(NCCCCCCO)OC1CCN(C(=O)Oc2ccc(Oc3ccccc3)cc2)CC1,69 to 72
17,CCCc1nc(C(C)(O)CC)c(C#N)n1Cc1ccc(-c2ccccc2-c2nnn[nH]2)cc1 (configuration not stated),141 to 145
18,CO[C@@H](C(=O)N[C@H]1CC[C@@H](OC(=O)C=Cc2ccccc2)CNC1=O)[C@H](O)[C@@H](O)[C@H](O)/C=C/C(C)(C)C,83 to 85
19,CC(Br)C(=O)c1ccc(CN2C(=O)c3ccccc3C2=O)s1 (configuration not stated),127 to 130
20,CC(C)(C)OC(=O)N[C@H]1CC[C@H](CCOS(C)(=O)=O)CC1,116
21,Oc1cc2c(Cl)cc(Br)cc2cc1Br,156 to 158
22,O=C(CCBr)N1CC(c2ccccc2)c2ccccc21 (configuration not stated),98 to 99
23,COc1cc(N)c(Cl)cc1C(=O)OCC1CCN(CCCOc2ccc(F)cc2)CC1,140
24,CC(C)c1ccc(C(=O)C2=C(O)C(=O)N(c3ccc(O)nn3)C2c2ccc(OC(F)(F)F)cc2)cc1 (configuration not stated),255
